Reference: patent US10407395B2, “Benzimidazole compound and medical use thereof” (Sumitomo Dainippon Pharma Co., Ltd., priority 2015, dated 2019)
Read-outs that look alike come from different tables or passages of the source.

Legend:
[1] = target: human SCN9A (Nav 1.7) (Homo sapiens, UniProt Q15858); experiment: Measurement of Na ion current (Nav 1.7) by automated patch clamp assay in cells stably-expressing human SCN9A; assay type: cell-based; conditions: read-out: Inhibitory rate (%) of Na ion current
human SCN9A (Nav 1.7), sequence (Q15858 whole entry): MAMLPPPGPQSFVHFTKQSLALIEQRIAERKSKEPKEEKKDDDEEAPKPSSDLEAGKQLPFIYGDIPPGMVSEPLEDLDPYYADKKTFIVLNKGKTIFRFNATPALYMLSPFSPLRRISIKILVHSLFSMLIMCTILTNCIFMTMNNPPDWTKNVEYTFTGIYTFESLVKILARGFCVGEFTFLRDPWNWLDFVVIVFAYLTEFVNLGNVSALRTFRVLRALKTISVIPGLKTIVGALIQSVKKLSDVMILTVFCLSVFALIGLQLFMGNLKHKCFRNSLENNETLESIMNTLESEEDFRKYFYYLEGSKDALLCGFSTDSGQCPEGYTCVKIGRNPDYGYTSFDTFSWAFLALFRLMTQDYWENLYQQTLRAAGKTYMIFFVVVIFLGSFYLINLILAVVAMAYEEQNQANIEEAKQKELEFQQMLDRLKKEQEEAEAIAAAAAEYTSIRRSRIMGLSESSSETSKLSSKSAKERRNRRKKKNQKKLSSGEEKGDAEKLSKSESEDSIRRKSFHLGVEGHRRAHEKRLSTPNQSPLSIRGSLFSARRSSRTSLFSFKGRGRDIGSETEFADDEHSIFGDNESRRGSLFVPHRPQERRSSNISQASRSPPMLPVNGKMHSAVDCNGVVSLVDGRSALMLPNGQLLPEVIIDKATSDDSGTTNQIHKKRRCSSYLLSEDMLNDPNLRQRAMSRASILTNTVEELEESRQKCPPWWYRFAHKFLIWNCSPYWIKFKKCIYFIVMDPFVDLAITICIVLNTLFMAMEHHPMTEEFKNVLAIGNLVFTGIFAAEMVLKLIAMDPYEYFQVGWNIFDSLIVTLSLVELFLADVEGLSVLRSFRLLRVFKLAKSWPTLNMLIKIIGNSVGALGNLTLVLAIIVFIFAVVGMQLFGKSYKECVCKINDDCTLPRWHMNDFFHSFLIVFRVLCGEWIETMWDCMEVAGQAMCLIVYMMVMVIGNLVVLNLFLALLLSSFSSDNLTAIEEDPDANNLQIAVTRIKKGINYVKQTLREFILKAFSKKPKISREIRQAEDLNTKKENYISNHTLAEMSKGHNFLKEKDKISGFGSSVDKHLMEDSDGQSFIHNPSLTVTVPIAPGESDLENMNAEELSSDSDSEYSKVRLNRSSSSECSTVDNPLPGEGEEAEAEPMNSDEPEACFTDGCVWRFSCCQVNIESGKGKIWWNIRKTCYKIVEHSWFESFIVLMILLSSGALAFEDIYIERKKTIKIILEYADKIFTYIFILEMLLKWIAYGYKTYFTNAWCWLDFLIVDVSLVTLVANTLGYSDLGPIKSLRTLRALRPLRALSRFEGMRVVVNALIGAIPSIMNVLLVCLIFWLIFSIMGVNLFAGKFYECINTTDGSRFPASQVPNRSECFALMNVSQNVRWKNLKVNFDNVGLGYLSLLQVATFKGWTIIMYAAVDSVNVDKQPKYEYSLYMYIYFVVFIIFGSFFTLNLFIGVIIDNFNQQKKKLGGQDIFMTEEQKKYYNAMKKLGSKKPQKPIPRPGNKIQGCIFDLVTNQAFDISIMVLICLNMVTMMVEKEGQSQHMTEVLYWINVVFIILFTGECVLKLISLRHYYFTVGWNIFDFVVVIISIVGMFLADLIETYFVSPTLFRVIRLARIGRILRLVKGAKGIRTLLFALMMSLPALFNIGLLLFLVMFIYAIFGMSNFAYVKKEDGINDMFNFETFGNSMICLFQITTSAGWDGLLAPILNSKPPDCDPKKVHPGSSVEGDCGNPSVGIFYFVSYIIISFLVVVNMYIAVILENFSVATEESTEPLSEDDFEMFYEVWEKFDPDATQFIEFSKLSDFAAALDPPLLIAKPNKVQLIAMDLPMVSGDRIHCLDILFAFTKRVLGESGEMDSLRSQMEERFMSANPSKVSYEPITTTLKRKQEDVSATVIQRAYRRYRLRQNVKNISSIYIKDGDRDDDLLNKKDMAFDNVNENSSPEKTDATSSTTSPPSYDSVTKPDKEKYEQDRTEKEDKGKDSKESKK
Protocol: Measurement of Na Ion Current in Voltage-Dependent Na Channel Gene Expressed Cell Nav 1.7 current was measured by automated patch clamp assay using cells stably-expressing human SCN9A. Cells Stably-expressing Human SCN9A Tetracycline-induced cells stably-expressing SCN9A were obtained from ChanTest Corporation. […] Next day, the Na ion current was measured by automated patch clamp assay. Electrophysiologic Measurement of Na Ion Current The Na ion current was measured by automated patch clamp assay using the following extracellular solution and intracellular solution. […] The control of the stimulating pulse and the data acquisition were carried out using EPC10 amplifier and Patch Master Software (HEKA). Data were sampled at 10 kHz, and low-pass filtered at 3 kHz. All the measurements were carried out at room temperature. […] The inhibitory rate of the Na ion current by the test compounds was calculated according to the following calculating formula with the peak current value generated by the depolarizing pulse. […] The inhibitory rate of Na ion current by each Example Compound was evaluated.

[2] = system: rats streptozotocin (STZ)-induced diabetic peripheral neuropathy model; experiment: Evaluation of analgesic effect (von Frey test) in streptozotocin-induced diabetic peripheral neuropathy model; assay type: in vivo, rat; conditions: male Wistar rats, 3 mg/kg of body weight, orally, one hour before measuring
Protocol: Test (2) Evaluation of Analgesic Effect in Streptozotocin-Induced Diabetic Peripheral Neuropathy Models
Using some typical compounds among the compounds of the present invention, the inhibitory effect for neuropathic pain was determined through the evaluation of analgesic effect in rats streptozotocin (STZ)-induced diabetic peripheral neuropathy model.
The disease animal model was prepared by means of a partially-modified method of Fox et al. (Pain 81, 307-316, 1999). STZ was intraperitoneally administered to 9-week old male Wistar rats in 45 mg/kg of body weight to prepare animal model suffering from diabetic peripheral neuropathy. The analgesic effect was evaluated by von Frey test. Specifically, mechanical sensitivity was measured by applying hairs (von Frey hair) to the plantar surface of the animal's hind paw, and then the reaction thresholds (50% paw withdrawal thresholds) for the mechanical stimulation was determined by using a formula based on Chaplan et al. (Journal of Neuroscience Methods 53, 55-63, 1994).
One and two days before evaluating the test compounds, the reaction thresholds were measured to obtain an average thereof, and the average value was used as a reference value obtained before the test compounds would be administered.
In order to reduce the variations of the averaged values among the test groups and the measured values in each group, the animals were divided into 4 to 5 groups.
In the evaluation test of the test compounds, the reaction thresholds were measured after administering each test compound. One hour before measuring the reaction thresholds, each test compound was administered in 3 mg/kg of body weight. The strength of analgesic effect of each test compound is expressed as the extension width (g) of reaction thresholds which is obtained by the calculation formula of (reaction threshold obtained after administering test compound)−(reaction threshold obtained before administering test compound).

[3] = compound concentration 10 μmol/L, holding potential inactivating 50% Nav 1.7 channel (around −60 mV)

inhibition at 10 µM [1, 3] [%] | SMILES | extension width (g) of reaction thresholds (50% paw withdrawal threshold after minus before administering test compound) [2] [g] | also measured
64 | CC(C)(O)Cn1cnc2ccc(-c3ccc(C(F)(F)F)cc3F)cc21 [Example 123, 1-{6-[2-fluoro-4-(trifluoromethyl)phenyl]-1H-benzimidazol-1-yl}-2-methylpropan-2-ol] | 1.3 | 
82 | CC(C)(O)Cn1cnc2ccc(Oc3ccc(C(F)(F)F)cn3)cc21 [Example 28, 2-methyl-1-(6-{[5-(trifluoromethyl)pyridin-2-yl]oxy}-1H-benzimidazol-1-yl)propan-2-ol] | 6 | 
59 | COc1cc(C(F)(F)F)ccc1-c1ccc2ncn(CC3(O)COC3)c2c1 [Example 148, 3-({6-[2-methoxy-4-(trifluoromethyl)phenyl]-1H-benzimidazol-1-yl}methyl)oxetan-3-ol] | 3.7 | 
73 | OC1(Cn2cnc3ccc(Oc4ccc(OC(F)(F)F)cc4)cc32)COC1 [Example 94, 3-({6-[4-(trifluoromethoxy)phenoxy]-1H-benzimidazol-1-yl}methyl)oxetan-3-ol] | 4.9 | 
32 | C[C@H](n1cnc2ccc(Oc3ccc(C(F)(F)F)cn3)cc21)C(C)(C)O [Example 229, (3S)-2-methyl-3-(6-{[5-(trifluoromethyl)pyridin-2-yl]oxy}-1H-benzimidazol-1-yl)butan-2-ol] | 3.9 | 
49 | CC(C)(O)CCn1cnc2ccc(Oc3ccc(C(F)(F)F)cn3)cc21 [Example 59, 2-methyl-4-(6-{[5-(trifluoromethyl)pyridin-2-yl]oxy}-1H-benzimidazol-1-yl)butan-2-ol] | 5.1 | 
36 | OC1(Cn2cnc3ccc(Oc4ccc(C(F)(F)F)cn4)cc32)CCCC1 [Example 119] |  | 
44 | OC1(Cn2cnc3cc(-c4cc(C(F)(F)F)ccc4Cl)ccc32)COC1 [Example 211] |  | 
46 | COc1cc(C(F)(F)F)ccc1-c1ccc2c(c1)ncn2CC1(O)COC1 [Example 205, 3-({5-[2-methoxy-4-(trifluoromethyl)phenyl]-1H-benzimidazol-1-yl}methyl)oxetan-3-ol] | 1.6 | 
53 | CC(C)(O)Cn1cnc2cc(Oc3ccc(C(F)(F)F)cc3F)ccc21 [Example 224, 1-{5-[2-fluoro-4-(trifluoromethyl)phenoxy]-1H-benzimidazol-1-yl}-2-methylpropan-2-ol] |  | 
48 | OC1(Cn2cnc3ccc(Oc4ccc(C(F)(F)F)cn4)cc32)CCC1 [Example 58, 1-[(6-{[5-(trifluoromethyl)pyridin-2-yl]oxy}-1H-benzimidazol-1-yl)methyl]cyclobutanol] |  | 
52 | FC(F)(F)c1ccc(-c2ccc3ncn(CCOC4CCCC4)c3c2)cc1 [Example 10, 1-[2-(cyclopentyloxy)ethyl]-6-[4-(trifluoromethyl)phenyl]-1H-benzimidazole] |  | 
33 | O[C@H]1CC[C@@H](n2cnc3ccc(Oc4ccc(C(F)(F)F)cn4)cc32)CC1 [Example 118, cis-4-(6-{[5-(trifluoromethyl)pyridin-2-yl]oxy}-1H-benzimidazol-1-yl)cyclohexanol] | 3.4 | 
16 | Cc1ccc(Oc2ccc3ncn(CC4(O)COC4)c3c2)cc1 [Example 92] |  | 
14 | CC(C)(O)Cn1cnc2ccc(-c3ccc(C(F)(F)F)nc3)cc21 [Example 122] |  | 
67 | FC(F)(F)c1ccc(-c2ccc3ncn(CC4CCCO4)c3c2)cc1 (stereo not drawn) [Example 7, 1-(tetrahydrofuran-2-ylmethyl)-6-[4-(trifluoromethyl)phenyl]-1H-benzimidazole] |  | 
63 | Cc1cc(-c2ccc3ncn(CC4(O)COC4)c3c2)cc(C(F)(F)F)c1 [Example 164] |  | 
39 | OC1(Cn2cnc3ccc(Oc4cc(Cl)ccc4Cl)cc32)COC1 [Example 112] |  | 

The next lines start with the molecule.

SMILES | inhibition at 10 µM [1, 3] [%] | extension width (g) of reaction thresholds (50% paw withdrawal threshold after minus before administering test compound) [2] [g] | also measured
CC(C)(O)Cn1cnc2cc(-c3ccc(OC(F)(F)F)cc3)ccc21 [Example 179, 2-methyl-1-{5-[4-(trifluoromethoxy)phenyl]-1H-benzimidazol-1-yl}propan-2-ol] | 61 | 6.5 | 
CC(C)(O)Cn1cnc2ccc(Oc3ccc(Cl)cc3)cc21 [Example 20, 1-[6-(4-chlorophenoxy)-1H-benzimidazol-1-yl]-2-methylpropan-2-ol] |  | 2.9 | inhibition at 10 µM [1]: 91%
CC(C)(O)Cn1cnc2ccc(Oc3ccc(F)cc3)cc21 [Example 1, 1-[6-(4-fluorophenoxy)-1H-benzimidazol-1-yl]-2-methylpropan-2-ol] | 83 | 2.8 | 
CC(C)(O)Cn1cnc2cc(-c3ccc(C(F)(F)F)cc3F)ccc21 [Example 181, 1-{5-[2-fluoro-4-(trifluoromethyl)phenyl]-1H-benzimidazol-1-yl}-2-methylpropan-2-ol] | 45 | 2.5 | 
CC(C)(O)CCn1cnc2ccc(Oc3ccc(Cl)cc3)cc21 [Example 101, 4-[6-(4-chlorophenoxy)-1H-benzimidazol-1-yl]-2-methylbutan-2-ol] | 43 | 1.4 | 
COc1cc(F)ccc1-c1ccc2c(c1)ncn2CC(C)(C)O [Example 186] | 22 |  | 
COc1cc(-c2ccc3ncn(CC(C)(C)O)c3c2)cc(C(F)(F)F)c1 [Example 142] | 55 |  | 
CC(C)(O)Cn1cnc2cc(-c3ccc4ocnc4c3)ccc21 [Example 201] | 32 |  | 
CC(C)(O)Cn1cnc2ccc(-c3ccccc3OC(F)(F)F)cc21 [Example 140] | 24 |  | 
Cc1ccc(-c2ccc3c(c2)ncn3CC(C)(C)O)cn1 [Example 183] |  |  | inhibition at 100 µM ([1]; compound concentration 100 μmol/L (footnoted examples), holding potential inactivating 50% Nav 1.7 channel (around −60 mV)): 30%
CC(C)(O)Cn1cnc2ccc(-c3cccc(C(F)(F)F)c3)cc21 [Example 137] | 38 |  | 
Cc1c(Cl)cccc1-c1ccc2c(c1)ncn2CC1(O)COC1 [Example 208] | 43 |  | 
OC1(Cn2cnc3ccc(-c4cc(F)cc(Cl)c4)cc32)COC1 [Example 165] | 35 |  | 
CC(C)(O)Cn1cnc2ccc(-c3cccc(Cl)c3F)cc21 [Example 133] | 60 |  | 
COc1cc(F)ccc1-c1ccc2ncn(CC(C)(C)O)c2c1 [Example 128] | 24 |  | 
Cc1cc(Cl)cc(-c2ccc3c(c2)ncn3CC2(O)COC2)c1 [Example 218] | 53 |  | 
CC(C)(O)CCn1cnc2ccc(-c3ccc(F)cc3)cc21 [Example 170] | 32 |  | 
